In ChEMBL document CHEMBL1201862, “PubChem BioAssay data set” (2004):
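Five concentrations, 48 hours, 96-well plates. Here, GI50 denotes the concentration required for 50% inhibition of growth.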 The source made the active and inactive calls. Cut-off read from the data, not from the text of the source: active = GI50 up to about 1.1 µM and inactive = higher.

Tests used:
Assay in all cases: NCI tumour cell line growth inhibition, 48 h
786-0 = test system: 786-0
HCT-116 = test system: HCT-116
A549 = test system: A549
HT-29 = test system: HT-29
RPMI-8226 = test system: RPMI-8226
UACC-62 = test system: UACC-62
ACHN = test system: ACHN
RXF 393 = test system: RXF 393
KM12 = test system: KM12
NCI-H226 = test system: NCI-H226
MDA-MB-435 = test system: MDA-MB-435
LOX IMVI = test system: LOX IMVI
OVCAR-5 = test system: OVCAR-5
OVCAR-4 = test system: OVCAR-4
NCI/ADR-RES = test system: NCI/ADR-RES
NCI-H522 = test system: NCI-H522
COLO 205 = test system: COLO 205
HOP-62 = test system: HOP-62
EKVX = test system: EKVX
SR = test system: SR

Measured: GI50

CC(=O)O/C(=C1\C[C@H]2[C@@H]3CC=C4C[C@@H](OC(C)=O)CC[C@]4(C)[C@H]3CC[C@]2(C)C1=O)C(F)(F)F
inactive: 786-0 8.53 µM | HCT-116 6.15 µM | A549 15.3 µM | HT-29 10.1 µM | RPMI-8226 4.08 µM | UACC-62 8.77 µM | ACHN 16.2 µM | RXF 393 6.19 µM | KM12 12.7 µM | NCI-H226 21 µM | MDA-MB-435 7.85 µM | LOX IMVI 1.86 µM | OVCAR-5 29.4 µM | OVCAR-4 11.4 µM | NCI/ADR-RES 7.16 µM | NCI-H522 3.18 µM | COLO 205 10.8 µM | HOP-62 14.1 µM | EKVX 12.7 µM | SR 2.88 µM

Nc1nc(-c2cccnc2)cc(-c2cc(-c3cccnc3)nc(N)n2)n1
inactive: 786-0 > 100 µM | HCT-116 > 100 µM | A549 > 100 µM | HT-29 > 100 µM | RPMI-8226 > 100 µM | UACC-62 > 100 µM | ACHN > 100 µM | RXF 393 > 100 µM | KM12 > 100 µM | NCI-H226 > 100 µM | MDA-MB-435 50.1 µM | LOX IMVI > 100 µM | OVCAR-5 > 100 µM | OVCAR-4 > 100 µM | NCI/ADR-RES > 100 µM | NCI-H522 > 100 µM | COLO 205 > 100 µM | HOP-62 > 100 µM | EKVX > 100 µM | SR 55.8 µM

COC(=O)CC(c1cn(S(=O)(=O)c2ccc(C)cc2)c2ccccc12)C1C[C@@H](C(=O)OC)N(C(=O)OC(C)(C)C)C1=O (some centres undefined)
inactive: 786-0 63.8 µM | HCT-116 14.9 µM | A549 27 µM | HT-29 26.7 µM | RPMI-8226 8.77 µM | UACC-62 55.6 µM | ACHN 12.5 µM | RXF 393 9.79 µM | KM12 71.9 µM | NCI-H226 > 100 µM | MDA-MB-435 41 µM | LOX IMVI 20.8 µM | OVCAR-5 > 100 µM | OVCAR-4 55.3 µM | NCI/ADR-RES 4.89 µM | NCI-H522 55.3 µM | COLO 205 26.7 µM | HOP-62 > 100 µM | EKVX > 100 µM | SR 3.08 µM

CCN(CC)c1nc(N(C)C)c2ccccc2n1
inactive: 786-0 27.9 µM | HCT-116 10.8 µM | A549 25.8 µM | HT-29 11.6 µM | RPMI-8226 13.2 µM | UACC-62 14.9 µM | ACHN 27.9 µM | RXF 393 24 µM | KM12 31.3 µM | NCI-H226 15.9 µM | MDA-MB-435 28.9 µM | LOX IMVI 30.1 µM | OVCAR-5 25.5 µM | OVCAR-4 54.1 µM | NCI/ADR-RES 22.5 µM | NCI-H522 18.5 µM | COLO 205 19.4 µM | HOP-62 49.3 µM | EKVX 10.3 µM | SR 7.78 µM

COC(=O)[C@@H]1Cc2ccc(OC)c(c2)OCCC(=O)N1
inactive: 786-0 > 100 µM | HCT-116 > 100 µM | A549 > 100 µM | HT-29 > 100 µM | RPMI-8226 > 100 µM | UACC-62 > 100 µM | ACHN > 100 µM | RXF 393 > 100 µM | KM12 > 100 µM | NCI-H226 > 100 µM | MDA-MB-435 > 100 µM | OVCAR-5 > 100 µM | OVCAR-4 > 100 µM | NCI/ADR-RES > 100 µM | NCI-H522 > 100 µM | COLO 205 > 100 µM | HOP-62 > 100 µM | EKVX > 100 µM | SR 32.6 µM
